Laboratory results from patent US20050107289A1, “Anti-microbial peptides and compositions” (priority 2001, published 2005).
Non-standard residues stand in square brackets, D forms with d. Residues, ends and D or L forms follow the SMILES beside them.

Assays:
E. coli JM109 (DE3) = experiment: Time-killing curve, E. coli; type: cell-based, Escherichia coli; details: FIG. 8b; at MIC concentrations
Experimental: (§1) The speed at which several of the cyclic peptides of the invention kill E. coli JM 109 (DE3), Enterococcus faecium SP 180 and S. aureus (MRSA) (ATCC No. 33591 and 33592) was further tested at room temperature and/or at 37° C. A lower temperature tends to enrich the bacterial cultures for mature bacteria because the bacteria are not growing quickly. […] The presence or absence of immature bacteria in the culture may influence the rate at which the bacteria are killed, because immature bacteria tend to be more susceptible to many forms of antibiotics.
In FIG. 8b, the log of the number of E. coli colony forming units (cfu) per ml of culture is plotted versus time treated with cyclo[KRKWLWLW] (closed triangles), cyclo[KQRWLWLW] (closed circles), cyclo[KHLWLW] (closed squares), and cyclo[KKWLW] (open squares) at MIC concentrations. […] Cyclic peptide cyclo[KHKLWLW] kills effectively all E. coli within about 90 minutes. Cyclic peptides cyclo[KRKWLWLW] and cyclo[KKWLW] kill effectively all of the E. coli within about 130 minutes. […] Nonetheless, these cyclic peptides kill both types of bacteria very quickly.

[1] = system: S. aureus (MRSA) (ATCC No. 33591); experiment: Time-killing curve, S. aureus MRSA ATCC 33591; type: cell-based, Staphylococcus aureus; details: FIG. 8a; at MIC concentrations
Experimental: as §1
To generate the data shown in FIG. 8a, the log of the number of colony forming units (cfu) per ml of culture was determined as a function of time after treatment of S. aureus (MRSA) (ATCC No. 33591) with cyclo[KHLWLW] (closed circles), cyclo[KRKWLWLW] (closed triangles), and cyclo[KQRWLWLW] (open squares) at MIC concentrations. […] The reduction in cfu count was greater than 3 log units. Cyclic peptide cyclo[KHLWLW] killed effectively all S. aureus (MRSA) within about 60 minutes.

CC(C)C[C@H]1NC(=O)[C@H](Cc2c[nH]c3ccccc23)NC(=O)[C@@H](CCCNC(=N)N)NC(=O)[C@H](CCC(N)=O)NC(=O)[C@@H](CCCCN)NC(=O)[C@H](Cc2c[nH]c3ccccc23)NC(=O)[C@@H](CC(C)C)NC(=O)[C@H](Cc2c[nH]c3ccccc23)NC1=O [SEQ ID NO:8, cyclo-(D-Lys-Gln-D-Arg-Trp-D-Leu-Trp-D-Leu-Trp)] (cyclo([dK]Q[dR]W[dL]W[dL]W))
time to kill effectively all E. coli (E. coli JM109 (DE3)): within about thirty minutes
time to kill effectively all S. aureus (MRSA) [1]: within about five minutes
